These results are taken from article PMC6838683, “Discovery of Human Signaling Systems: Pairing Peptides to G Protein-Coupled Receptors” (Cell, 2019).

Read-outs that look alike come from different tables or passages of the source. Residues, ends and D or L forms follow the SMILES beside them.

Assay [1] deals with T1, GPR15 (Homo sapiens, UniProt P49685).
T1 construct: hIL-2Ra signal peptide (N); expressed in transfected cells
T1 sequence (P49685 2-360 limits assumed): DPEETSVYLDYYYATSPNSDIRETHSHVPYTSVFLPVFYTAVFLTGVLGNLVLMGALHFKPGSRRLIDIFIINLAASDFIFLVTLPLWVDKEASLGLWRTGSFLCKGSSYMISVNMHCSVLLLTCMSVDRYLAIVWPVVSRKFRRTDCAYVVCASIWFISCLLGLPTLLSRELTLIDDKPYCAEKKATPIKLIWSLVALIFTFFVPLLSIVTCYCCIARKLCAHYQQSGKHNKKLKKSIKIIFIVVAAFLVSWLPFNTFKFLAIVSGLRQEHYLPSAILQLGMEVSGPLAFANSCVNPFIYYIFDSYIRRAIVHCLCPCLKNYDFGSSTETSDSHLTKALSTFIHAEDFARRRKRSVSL
Put plainly: cAMP inhibition (Gi/o), HTRF with forskolin. Type of assay: cell-based. The following applies: mean. As to the method:
Peptide-dependent second messenger responses were measured using commercially available HTRF-based IP1 and cAMP kits (Cisbio) as described previously ([Nørskov-Lauritsen et al., 2014]). Receptor expression was induced for 48 hr with 0.1 μg/ml doxycycline in 10 cm dishes. For IP1 measurements (to measure Gq/11), 2,500 cells/well were mixed with ligands in triplicate wells in low volume white 384-well plates at 37°C for 30 min. For cAMP assays, 2,500 cells/well were added in triplicate wells in white 384-well plates in the absence or presence of 3 μM forskolin (to measure Gs and Gi/o activation respectively). 100 μM IBMX was included to prevent cAMP degradation during 30 min stimulation on a plate shaker at room temperature. For both assays, HTRF was measured using an EnVision 2104 Multimode plate reader (PerkinElmer).
(TR-FRET usually uses a lanthanide donor and a delayed reading to cut background.)

In assay [2] the target is T2, HA-OGR1 (GPR68) (Homo sapiens, UniProt Q15743).
T2 construct: HA; expressed in transfected cells
Nature of the assay: Ca2+ mobilization assay (Fluo-4). The class given is cell-based. Conditions: receptor GPR68; mean, SEM and n (3); read-out: Calcium mobilization assays Emax (% ionomycin). As to the method: Peptide-dependent Ca^2+ mobilization responses were measured in HEK293 stable cell lines (HA-OGR1 (GPR68) and vector pcDNA) ([Saxena et al., 2012]) that were seeded in 96-well plates (1 × 10^5 cells/well) and cultured at 37°C with 5% CO2 to near confluence in DMEM with 10% FBS (Corning). Six hours prior to assay, medium was changed to pH 8.0 or pH 7.4 HAM’s F12 Nutrient Mixture (GIBCO) without FBS and transferred to a 37°C incubator without CO2. One hour prior to stimulation, cells were incubated in pH 8.0 or pH 7.4 HBSS with Ca^2+ and Mg^2+ (GIBCO), supplemented with 15 mM HEPES, 2 μM Fluo-4 AM (Invitrogen) and 1.5 mM probenecid ([…] to prevent Fluo-4 efflux) as described previously ([Pera et al., 2018]). Indicated peptides were pipetted using an automated system and emission signal was recorded at 525 nm after excitation at 485 nm using Flex Station III (Molecular Devices). Ca^2+ mobilization responses were determined by subtracting basal fluorescence from the net peak of agonist-induced fluorescence. Ionomycin (1 μM) was used to calculate the maximum Ca^2+ signal to normalize peptide-mediated responses.
A general note: Calcium flux is commonly read through the fluorescence of an indicator in the cells.

Assay [3] concerns the target T3, MRGPRX2 (Homo sapiens, UniProt Q96LB1).
T3 construct: host or cells: HTLA cells (HEK293-derived)
T3 sequence (Q96LB1 1-330): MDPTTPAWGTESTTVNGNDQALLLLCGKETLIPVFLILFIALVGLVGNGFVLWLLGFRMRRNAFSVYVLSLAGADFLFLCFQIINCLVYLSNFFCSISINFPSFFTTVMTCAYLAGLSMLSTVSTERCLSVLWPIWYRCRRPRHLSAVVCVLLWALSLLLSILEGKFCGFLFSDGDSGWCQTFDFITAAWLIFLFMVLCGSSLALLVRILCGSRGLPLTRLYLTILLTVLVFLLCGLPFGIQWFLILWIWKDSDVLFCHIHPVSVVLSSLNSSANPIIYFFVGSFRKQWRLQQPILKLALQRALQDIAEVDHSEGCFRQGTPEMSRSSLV
Put plainly: β-arrestin recruitment (Tango), known peptide receptors. Type of assay: cell-based. Conditions: mean, n = 3. (In general: Activated receptors often draw arrestin, which recruitment assays turn into a signal.)

In assay [4] the target is T4, NPY5 (Homo sapiens, UniProt Q15761).
T4 construct: host or cells: HTLA cells (HEK293-derived)
T4 sequence (Q15761 1-445): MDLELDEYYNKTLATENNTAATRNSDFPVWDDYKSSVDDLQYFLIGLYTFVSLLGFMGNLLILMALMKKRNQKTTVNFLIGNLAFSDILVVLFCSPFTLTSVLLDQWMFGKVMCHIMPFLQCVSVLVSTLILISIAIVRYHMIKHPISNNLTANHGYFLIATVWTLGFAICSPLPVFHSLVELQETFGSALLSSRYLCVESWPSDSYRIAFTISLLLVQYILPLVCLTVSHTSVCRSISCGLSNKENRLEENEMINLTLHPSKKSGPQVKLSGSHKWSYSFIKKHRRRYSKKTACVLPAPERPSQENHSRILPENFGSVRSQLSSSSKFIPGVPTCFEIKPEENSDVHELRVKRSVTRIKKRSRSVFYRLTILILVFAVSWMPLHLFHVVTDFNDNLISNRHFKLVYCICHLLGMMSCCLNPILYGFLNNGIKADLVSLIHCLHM
Described as above. Type of assay: cell-based. The following applies: NPY5R, n = 3; for Comment, Tango (fold over basal): Emax and pEC50 n.d.; for Emax, Tango (fold over basal) / pEC50, Tango (fold over basal): mean. On the procedure:
(§1) The peptide library was additionally screened against 120 GPCR targets in parallel, including all available orphan receptors and 27 known class A peptide receptors using the Tango assay platform ([Kroeze et al., 2015]). Briefly, HTLA cells (a HEK293 cell line stably expressing a tTA-dependent luciferase reporter and a β-arrestin2-TEV fusion gene) were plated 10,000 cells/well in poly-L-lysine–coated clear-bottom white 384-well plates in DMEM supplemented with 10% FBS, 100 U/ml penicillin and 100 μg/ml streptomycin, 2 μg/ml puromycin and 100 μg/ml hygromycin B. 24 hr later, cells were transfected with Tango GPCR constructs using the calcium phosphate method ([Jordan et al., 1996]). The next day, culture medium was changed to DMEM + 1% dFBS and 10 μM peptides were added for overnight stimulation. Bright-Glo solution (Promega) was incubated for 15–20 min at room temperature, and luminescence was counted using a Trilux luminescence counter (Wallac).
For subsequent peptide validation experiments using Tango assays, HTLA cells were transiently transfected in 10 cm dishes with the receptor of interest using polyethylenimine (PEI) ([Longo et al., 2013]). After 24 hr, 25,000 cells/well were plated in clear bottom, white-walled 384-well plates. Assays were performed as described above, with luminescence measured using an EnSpire 2300 Multimode plate reader (PerkinElmer). Luminescence counts were exported into Excel and were analyzed using GraphPad Prism 7.

The subject of assay [5] is 120 GPCR targets, including all available orphan receptors and 27 known class A peptide receptors. Nature of the assay: Peptide library screen, β-arrestin recruitment (Tango, fold change, 10 μM). Type of assay: cell-based, human. The following applies: for Active at: (activity in b-arrestin recruitment assays): Tango, receptor(s) at which the known library peptide was active, among its known GPCR target(s), validated pairings. As to the method: as §1

Assay [6] deals with GPR68 (Homo sapiens, UniProt Q15743). Nature of the assay: Real-time receptor internalization (TR-FRET), concentration-response. The class given is cell-based. Further details: hIL-2Ra signal peptide (N); expressed in transfected cells. Conditions: GPR68; real-time internalization; mean, SEM and n (3). As to the method: 48 hr prior to parallel assaying, SNAP-tagged oGPCR cells were plated (10,000 cells/well) in fibronectin-coated 384-well Epic biosensor microplates (Corning) and poly-D-lysine coated white 384-well plates (for internalization assays). SNAP- GLP-1 receptor was plated alongside orphan receptor cells as an internal assay control for internalization assays. Receptor-expression was induced with 0.1 μg/ml doxycycline.
A TR-FRET real-time internalization assay was used to examine peptide-dependent changes in orphan receptor localization as described previously ([Foster and Bräuner-Osborne, 2018]). Surface-expressed SNAP-tagged receptors were labeled with a cell-impermeable luminescent terbium cryptate (100 nM SNAP Lumi4-Tb; Cisbio, France) for 1 hr at 37°C. Cells were washed to remove excess terbium and incubated with fluorescein-O-acetic acid (100 μM; Sigma Aldrich) for 5 min at 37°C. Peptides were added as for DMR assays, and internalization responses were recorded for 60 min at 37°C using an EnVision 2104 Multimode plate reader (PerkinElmer). 100 nM GLP-1 was used as a positive control for SNAP-GLP1R internalization. Real-time internalization responses were calculated based on TR-FRET (excitation 340 nm; emission 520 nm and 615 nm), and were expressed as the ratio between donor (terbium) and acceptor (fluorescein) emission. For peptide screening analysis (both DMR and internalization assays), we calculated the area under the curve from the real-time traces. As the magnitude of the responses was variable between orphan receptor targets, particularly for the SNAP-tag based internalization assay where the signal is dependent on receptor surface expression, the AUC values were normalized to their respective plate averages and expressed as fold change. Validation experiments for receptor internalization were performed as above. Internalization data was processed in MS-Excel and area under the curve was used to generate concentration-response curves using GraphPad Prism 7.0. Data represent mean ± standard error of the mean (SEM) from at least 3 biologically independent experiments.

Sequence of GPR68 (Q15743 2-365 limits assumed): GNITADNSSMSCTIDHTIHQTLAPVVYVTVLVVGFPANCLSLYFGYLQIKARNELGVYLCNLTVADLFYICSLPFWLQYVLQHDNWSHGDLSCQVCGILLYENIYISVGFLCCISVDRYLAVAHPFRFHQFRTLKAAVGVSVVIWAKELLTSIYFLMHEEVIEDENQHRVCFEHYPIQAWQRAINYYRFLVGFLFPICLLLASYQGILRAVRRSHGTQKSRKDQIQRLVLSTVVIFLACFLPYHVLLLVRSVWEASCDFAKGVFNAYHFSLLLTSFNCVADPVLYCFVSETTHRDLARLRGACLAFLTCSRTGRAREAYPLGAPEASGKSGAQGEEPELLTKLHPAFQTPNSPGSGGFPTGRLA
T2 sequence (Q15743 whole entry): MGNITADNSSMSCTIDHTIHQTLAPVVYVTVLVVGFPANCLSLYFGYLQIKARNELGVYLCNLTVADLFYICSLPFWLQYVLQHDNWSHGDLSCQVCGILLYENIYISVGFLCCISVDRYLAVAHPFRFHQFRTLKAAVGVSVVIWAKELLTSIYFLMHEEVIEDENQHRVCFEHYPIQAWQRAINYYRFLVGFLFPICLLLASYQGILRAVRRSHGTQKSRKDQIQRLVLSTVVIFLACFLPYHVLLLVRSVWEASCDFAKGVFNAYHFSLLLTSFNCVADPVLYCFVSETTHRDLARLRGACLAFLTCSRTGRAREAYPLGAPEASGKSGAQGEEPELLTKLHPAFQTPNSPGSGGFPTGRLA

Regarding `CC(C)C[C@H](NC(=O)[C@H](C)NC(=O)CNC(=O)[C@@H]1CCCN1C(=O)[C@@H](NC(=O)[C@@H](NC(=O)[C@H](Cc1c[nH]c2ccccc12)NC(=O)[C@@H](N)CC(C)C)C(C)C)C(C)C)C(=O)N1CCC[C@H]1C(=O)N[C@@H](CCC(N)=O)C(=O)N[C@H](C(=O)O)C(C)C` [64 resynthesized] (H-LWVVPGALPQV-OH), in assay [1] (receptor GPR15, SEM and n (4), read-out: cAMP accumulation assays Emax (% FSK)), the Emax (usually the maximal effect, on the per cent scale that the assay sets) turned out to be 30.8%. Take `CC[C@H](C)[C@H](NC(=O)[C@H](CCCNC(=N)N)NC(=O)[C@H](CC(=O)O)NC(=O)[C@H](CCSC)NC(=O)[C@@H]1CCCN1C(=O)[C@@H](NC(=O)CNC(=O)[C@H](Cc1ccccc1)NC(=O)[C@@H](N)CCCNC(=N)N)[C@@H](C)CC)C(=O)NCC(=O)N[C@@H](CCCNC(=N)N)C(=O)N[C@@H](CC(N)=O)C(=O)N[C@@H](CCCNC(=N)N)C(=O)N[C@@H](CC(C)C)C(=O)N[C@@H](CO)C(=O)N[C@@H](CC(N)=O)C(=O)N[C@@H](CO)C(=O)N[C@@H](CCCNC(=N)N)C(=O)NCC(=O)O` [128 resynthesized] (H-RFGIPMDRIGRNRLSNSRG-OH): the maximal response (Emax) in assay [2] was found to be 34.5%. `CC(C)C[C@H](NC(=O)[C@H](C)NC(=O)CNC(=O)[C@@H]1CCCN1C(=O)[C@@H](NC(=O)[C@@H](NC(=O)[C@H](Cc1c[nH]c2ccccc12)NC(=O)[C@@H](N)CC(C)C)C(C)C)C(C)C)C(=O)N1CCC[C@H]1C(=O)N[C@@H](CCC(N)=O)C(=O)N[C@H](C(=O)O)C(C)C` [GPR15L_(47-57)] (H-LWVVPGALPQV-OH): the maximal effect (Emax) in assay [1] (GPR15, SEM and n, read-out: Emax, cAMP (% FSK)) turned out to be 29.2%. In the case of “ATVRNEDKWKPLNNPRNRDLFFRRLQAYFK [Peptide 175]”, in assay [3], the “Emax, Tango (fold over basal)” value was 3.5 fold over basal and the “pEC50, Tango (fold over basal)” value is given as 4.67. On to FLWKDLQRVR [Peptide 56], for which, in assay [3], the “Emax, Tango (fold over basal)” value came to 4.9 fold over basal and the “pEC50, Tango (fold over basal)” value was found to be 4.90. Take IQAQLKELRY [Peptide 49]: in assay [4], the “Comment, Tango (fold over basal)” value was “Response >1uM”.

As to MPHSFANLPLRF [Peptide 86], the “Active at: (activity in b-arrestin recruitment assays)” value in assay [5] is “NPFF1”. For the same compound, in assay [4], the “Emax, Tango (fold over basal)” value is listed as 10.4 fold over basal and the “pEC50, Tango (fold over basal)” value is on record as 5.44. Turning to QMAVKKYLAAVL [Peptide 84], in assay [3], the “Emax, Tango (fold over basal)” value was determined as 7.0 fold over basal and the “pEC50, Tango (fold over basal)” value is recorded as 5.02. In the case of RFGIPMDRIGRNRLSNSR [Peptide 128.1], in assay [6], the “Internalization assays Emax (AUC)” value was 2.0. Turning to SQAFLFQPQRF [Peptide 75], the “Active at: (activity in b-arrestin recruitment assays)” value in assay [5] is recorded as “NPFF1”. In assay [4], the “Comment, Tango (fold over basal)” value is “Response >1uM”.

On to “SRTHRHSMEIRTPDINPAWYASRGIRPVGRF [Peptide 183]”, for which the “Active at: (activity in b-arrestin recruitment assays)” value in assay [5] was “PrRP”. The “Confirmation of known target in Tango” value in assay [5] (repeat hitters of the peptide library screen, the value names the known receptor(s) confirmed in the β-arrestin recruitment (Tango) screen) is “PrRP”. Moreover, in assay [4], the “Emax, Tango (fold over basal)” value is recorded as 6.6 fold over basal and the “pEC50, Tango (fold over basal)” value is listed as 5.60.

For VPNLPGRF [Peptide 36], the “Comment, Tango (fold over basal)” value in assay [4] is reported as “Response >1uM”.

In the case of WYKHVASPRYHTVGRAAGLLMGL [Peptide 151], the “Active at: (activity in b-arrestin recruitment assays)” value in assay [5] is “NPBW1, NPBW2”. Moreover, in assay [3], the “Emax, Tango (fold over basal)” value stood at 3.4 fold over basal and the “pEC50, Tango (fold over basal)” value amounted to 4.73.
